From PMC12369021, “Biased Signaling and Its Role in the Genesis of Short- and Long-Acting β2‑Adrenoceptor Agonists” (Biochemistry, 2025)
Like-named read-outs stand apart in the source and are kept apart here.

What was measured:
[1] = target: β2AR; conditions: cited from earlier work
[2] = tested on: β2AR; conditions: for log bias factor (mGs/Arr2): ΔΔlog(Emax/EC50) relative to reference formoterol, from peak responses
Experimental: To determine the relative effectiveness of the compounds to activate the different signaling pathways, the difference between the log(E max/EC50) values was calculated.
Using the estimates of agonist activity Δlog(E max/EC50) for the test and reference agonists, pathway log bias was calculated as follows: 3 ΔΔlog(Emax/EC50)=Δlog(Emax/EC50)P1−Δlog(Emax/EC50)P2 where pathway 1 (P1) is mGs-dependent recruitment and pathway 2 (P2) is β-arrestin2 recruitment. Bias factors were calculated by taking the antilog of the ΔΔlog(E max/EC50).
Error on the pathway bias was calculated using the following formula: 4 SEMΔΔlog(Emax/EC50)=SEMΔlog(Emax/EC50)P12+SEMΔlog(Emax/EC50)P22

[3] = target: T1, β2AR (Homo sapiens, UniProt P07550); assay: nanoBRET β-arrestin2 recruitment assay in T-REx-293-β2AR-nLuc cells; format: cell-based; conditions: for EC50: mean ± SEM
Target sequence in this assay (P07550 whole entry): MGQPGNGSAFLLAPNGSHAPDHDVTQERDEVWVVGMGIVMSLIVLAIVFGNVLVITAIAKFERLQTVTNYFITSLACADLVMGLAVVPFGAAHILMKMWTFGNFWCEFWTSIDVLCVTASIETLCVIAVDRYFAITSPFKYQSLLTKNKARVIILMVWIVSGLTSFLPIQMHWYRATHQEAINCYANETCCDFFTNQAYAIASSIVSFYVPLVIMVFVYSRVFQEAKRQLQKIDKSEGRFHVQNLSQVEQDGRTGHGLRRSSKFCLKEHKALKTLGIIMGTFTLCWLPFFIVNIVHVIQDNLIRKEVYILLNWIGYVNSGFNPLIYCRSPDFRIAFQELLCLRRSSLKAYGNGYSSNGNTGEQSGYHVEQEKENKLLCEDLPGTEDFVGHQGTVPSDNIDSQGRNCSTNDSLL
Target sequence in this assay (P32121 whole entry partner): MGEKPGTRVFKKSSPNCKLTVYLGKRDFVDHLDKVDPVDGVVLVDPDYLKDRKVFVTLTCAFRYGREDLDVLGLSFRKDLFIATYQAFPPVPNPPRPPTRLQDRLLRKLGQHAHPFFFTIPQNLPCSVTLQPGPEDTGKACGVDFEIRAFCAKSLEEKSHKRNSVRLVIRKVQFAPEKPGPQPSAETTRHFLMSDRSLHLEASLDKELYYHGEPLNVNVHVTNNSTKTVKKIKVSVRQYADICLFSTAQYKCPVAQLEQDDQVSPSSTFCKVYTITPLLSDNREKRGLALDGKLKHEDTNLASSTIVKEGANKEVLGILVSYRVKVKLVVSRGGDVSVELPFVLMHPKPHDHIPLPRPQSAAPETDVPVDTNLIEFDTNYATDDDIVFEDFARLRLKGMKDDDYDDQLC

[4] = target: T1, β2AR; assay: nanoBRET mGs protein recruitment assay in T-REx-293-β2AR-nLuc cells; format: cell-based; conditions: for EC50: mean ± SEM
Target sequence in this assay (P07550 whole entry): as the sequence (P07550 whole entry) above

[5] = ΔΔlog(Emax/EC50) relative to formoterol, AUC-derived
[6] = read-out: β-arrestin2 Emax at room temperature
[7] = read-out: β-arrestin2 Emax derived from AUC analysis
[8] = read-out: mGs Emax at room temperature
[9] = read-out: mGs Emax derived from AUC analysis

| Emax [3, 6] [%] | Emax ([4]; read-out: mGs E max) [%] | Emax [4, 8] [%] | Emax [4, 9] [%] | Structure (SMILES) | Log Bias Factor (mGs/Arr2) from AUC analysis [2, 5] | log bias factor (mGs/Arr2) [2] | further results |
| --- | --- | --- | --- | --- | --- | --- | --- |
|  |  |  |  | C=CCc1ccccc1OCC(O)CNC(C)C (stereo not shown) [Alprenolol] |  |  | Ki [1]: 0.912 nM |
|  |  |  |  | CC(C)(C)NCC(O)c1ccc(O)c(CO)c1 (stereo not shown) [Salbutamol] | 1.65 ± 0.06 | 1.42 ± 0.19 |  |
| 116 ± 1.7 | 97.8 ± 1.4 | 101 ± 2.8 | 93.9 ± 1.7 | CCC(NC(C)C)C(O)c1ccc(O)c(O)c1 (stereo not shown) [Isoetharine] | 0.79 ± 0.06 | 0.59 ± 0.13 | Ki [1]: 1580 nM; EC50 ([3]; AUC analysis, 37 °C, read-out: β-arrestin2 pEC50 derived from AUC analysis (converted)): 224 nM; EC50 ([3]; peak response, 37 °C, read-out: β-arrestin2 pEC50 (converted)): 417 nM; Emax ([3]; read-out: β-arrestin2 E max): 112 ± 5.9%; Emax [3, 7]: 103 ± 4.37%; EC50 ([3]; room temperature, 3 observations, read-out: β-arrestin2 pEC50 at room temperature (converted)): 209 nM; EC50 ([4]; AUC analysis, 37 °C, read-out: mGs pEC50 derived from AUC analysis (converted)): 38 nM; EC50 ([4]; peak response at 30 min, 37 °C, read-out: mGs pEC50 (converted)): 61.7 nM; EC50 ([4]; room temperature, 3 observations, read-out: mGs pEC50 at room temperature (converted)): 13.5 nM |
|  |  |  |  | COc1ccc(CC(C)NCC(O)c2ccc(O)c(NC=O)c2)cc1 (stereo not shown) [Formoterol] |  | 0 ± 0.10 |  |
| 8.8 ± 1 | 33.6 ± 0.6 | 41.9 ± 1.4 | 32.8 ± 0.4 | CC(C)(C)NCC(O)c1ccccc1Cl (stereo not shown) [Tulobuterol] |  |  |  |
|  |  |  |  | OCc1cc(C(O)CNCCCCCCOCCCCc2ccccc2)ccc1O (stereo not shown) [Salmeterol] |  | 0.53 ± 0.15 |  |
|  |  |  |  | CC(C)NCC(O)c1ccc(O)c(O)c1 (stereo not shown) [Isoprenaline, isoprenaline] |  | 0.48 ± 0.14 | Log Bias Factor (mGs/Arr2) from AUC analysis [2]: 0.51 ± 0.07 |

| Structure (SMILES) | Emax [3, 6] [%] | Emax ([4]; read-out: mGs E max) [%] | Emax [4, 8] [%] | Emax [4, 9] [%] | Log Bias Factor (mGs/Arr2) from AUC analysis [2, 5] | log bias factor (mGs/Arr2) [2] | further results |
| --- | --- | --- | --- | --- | --- | --- | --- |
| CC(Cc1ccc(O)cc1)NCC(O)c1cc(O)cc(O)c1 (stereo not shown) [Fenoterol, fenoterol] | 83.8 ± 7.1 | 77 ± 0.4 | 73.9 ± 2.1 | 76.7 ± 0.8 | 0.37 ± 0.05 | 0.32 ± 0.11 | Emax ([3]; read-out: β-arrestin2 E max): 85 ± 2.5%; Emax [3, 7]: 93.6 ± 8.1% |
